In ChEMBL document CHEMBL1201862, “PubChem BioAssay data set” (2004):
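Growth conditions: 96-well plates. Treatment: test compound, 48 hours, 5 concentrations. Analysis: linear interpolation between bracketing concentrations; unreached endpoints set to highest concentration. Here, GI50 denotes the concentration required for 50% inhibition of growth.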 Calls of active or inactive are those of the source. No stated cut-off is given here; in the data, active = GI50 up to about 1.1 µM and inactive = higher.

What was measured:
Experiment in all cases: NCI-60 cell line screen, 48 h
[1] = system: BT-549
[2] = system: CAKI-1
[3] = system: HT-29
[4] = system: MDA-N
[5] = system: SF-268
[6] = system: NCI-H226
[7] = system: PC-3
[8] = system: Hs-578T
[9] = system: UO-31
[10] = system: SF-295
[11] = system: 786-0
[12] = system: MOLT-4
[13] = system: MDA-MB-231
[14] = system: TK-10
[15] = system: SN12C
[16] = system: OVCAR-8
[17] = system: SNB-19
[18] = system: DU-145
[19] = system: SR
[20] = system: ACHN
[21] = system: SNB-75
[22] = system: NCI-H522
[23] = system: HCT-15
[24] = system: HCC 2998
[25] = system: RXF 393
[26] = system: HOP-62
[27] = system: UACC-62
[28] = system: KM12
[29] = system: A498
[30] = system: NCI-H23
[31] = system: M14
[32] = system: NCI-H460
[33] = system: Malme-3M
[34] = system: SK-MEL-28
[35] = system: HCT-116
[36] = system: MDA-MB-435
[37] = system: SK-OV-3
[38] = system: HOP-92
[39] = system: T47D
[40] = system: EKVX
[41] = system: IGROV-1
[42] = system: HL-60
[43] = system: OVCAR-5
[44] = system: OVCAR-4
[45] = system: SK-MEL-2
[46] = system: COLO 205
[47] = system: UACC-257
[48] = system: RPMI-8226
[49] = system: NCI/ADR-RES
[50] = system: OVCAR-3
[51] = system: MCF7
[52] = system: LOX IMVI
[53] = system: SW-620
[54] = system: U-251
[55] = system: SF-539
[56] = system: SK-MEL-5
[57] = system: A549
[58] = system: K562
[59] = system: CCRF-CEM

With `Cc1cc(=O)oc2cc(SC(=O)N(C)C)ccc12` the GI50 [1] was > 100 µM (inactive), the GI50 [2] was > 100 µM (inactive) and the GI50 [3] was > 100 µM (inactive). For the same compound, the GI50 [4] was > 100 µM (inactive), the GI50 [5] was > 100 µM (inactive) and the GI50 [6] was > 100 µM (inactive). For the same compound, the GI50 [7] was > 100 µM (inactive), the GI50 [8] was > 100 µM (inactive) and the GI50 [9] was > 100 µM (inactive). For the same compound, the GI50 [10] was > 100 µM (inactive), the GI50 [11] was > 100 µM (inactive) and the GI50 [12] was > 100 µM (inactive). The GI50 [13] was > 100 µM (inactive), the GI50 [14] was > 100 µM (inactive) and the GI50 [15] was > 100 µM (inactive). The GI50 [16] was > 100 µM (inactive), the GI50 [17] was > 100 µM (inactive) and the GI50 [18] was > 100 µM (inactive). The GI50 [19] was > 100 µM (inactive), the GI50 [20] was > 100 µM (inactive) and the GI50 [21] was > 100 µM (inactive). For the same compound, the GI50 [22] was > 100 µM (inactive), the GI50 [23] was > 100 µM and the GI50 [24] was > 100 µM (inactive). For the same compound, the GI50 [25] was > 100 µM (inactive), the GI50 [26] was > 100 µM (inactive) and the GI50 [27] was 57.1 µM (inactive). For the same compound, the GI50 [28] was > 100 µM (inactive), the GI50 [29] was > 100 µM (inactive) and the GI50 [30] was > 100 µM (inactive). The GI50 [31] was > 100 µM (inactive), the GI50 [32] was > 100 µM (inactive) and the GI50 [33] was > 100 µM (inactive). The GI50 [34] was > 100 µM (inactive), the GI50 [35] was > 100 µM (inactive) and the GI50 [36] was > 100 µM (inactive). The GI50 [37] was > 100 µM (inactive), the GI50 [38] was > 100 µM (inactive) and the GI50 [39] was > 100 µM (inactive). The GI50 [40] was 61 µM (inactive), the GI50 [41] was > 100 µM (inactive) and the GI50 [42] was > 100 µM (inactive). The GI50 [43] was 77.8 µM (inactive), the GI50 [44] was > 100 µM (inactive) and the GI50 [45] was > 100 µM (inactive). The GI50 [46] was > 100 µM (inactive), the GI50 [47] was > 100 µM (inactive) and the GI50 [48] was > 100 µM (inactive). For the same compound, the GI50 [49] was > 100 µM (inactive), the GI50 [50] was > 100 µM (inactive) and the GI50 [51] was > 100 µM (inactive). For the same compound, the GI50 [52] was > 100 µM (inactive), the GI50 [53] was > 100 µM (inactive) and the GI50 [54] was > 100 µM (inactive). For the same compound, the GI50 [55] was > 100 µM (inactive), the GI50 [56] was > 100 µM (inactive) and the GI50 [57] was > 100 µM (inactive).

With `Nc1nc(S)c2c(N)n[nH]c2c1C(=O)Nc1ccc(Cl)cc1` the GI50 [1] was > 100 µM (inactive), the GI50 [2] was 60.3 µM (inactive) and the GI50 [3] was > 100 µM (inactive). The GI50 [4] was 89.7 µM (inactive), the GI50 [5] was > 100 µM (inactive) and the GI50 [6] was > 100 µM (inactive). For the same compound, the GI50 [7] was > 100 µM (inactive), the GI50 [8] was > 100 µM (inactive) and the GI50 [9] was 74 µM (inactive). The GI50 [11] was 45.9 µM (inactive), the GI50 [58] was 91.6 µM (inactive) and the GI50 [12] was > 100 µM (inactive). The GI50 [13] was > 100 µM (inactive), the GI50 [14] was > 100 µM (inactive) and the GI50 [15] was > 100 µM (inactive). The GI50 [16] was 32.1 µM (inactive), the GI50 [17] was > 100 µM (inactive) and the GI50 [18] was 47 µM (inactive). The GI50 [19] was 24.3 µM (inactive), the GI50 [21] was > 100 µM (inactive) and the GI50 [22] was 96.4 µM (inactive). For the same compound, the GI50 [23] was 74.8 µM, the GI50 [24] was > 100 µM (inactive) and the GI50 [25] was > 100 µM (inactive). For the same compound, the GI50 [27] was 18.4 µM (inactive), the GI50 [28] was 21.4 µM (inactive) and the GI50 [29] was > 100 µM (inactive). The GI50 [31] was 45.4 µM (inactive), the GI50 [32] was 54.1 µM (inactive) and the GI50 [33] was > 100 µM (inactive). For the same compound, the GI50 [34] was > 100 µM (inactive), the GI50 [35] was > 100 µM (inactive) and the GI50 [36] was 84.5 µM (inactive). The GI50 [37] was > 100 µM (inactive), the GI50 [38] was > 100 µM (inactive) and the GI50 [39] was 44.6 µM (inactive). The GI50 [40] was > 100 µM (inactive), the GI50 [41] was > 100 µM (inactive) and the GI50 [42] was 21.2 µM (inactive). The GI50 [43] was > 100 µM (inactive), the GI50 [44] was 64.4 µM (inactive) and the GI50 [45] was > 100 µM (inactive). For the same compound, the GI50 [46] was > 100 µM (inactive), the GI50 [47] was 77.1 µM (inactive) and the GI50 [48] was > 100 µM (inactive). For the same compound, the GI50 [49] was > 100 µM (inactive), the GI50 [50] was > 100 µM (inactive) and the GI50 [51] was > 100 µM (inactive). The GI50 [52] was 5.41 µM (inactive), the GI50 [53] was 29.6 µM (inactive) and the GI50 [54] was > 100 µM (inactive). The GI50 [55] was > 100 µM (inactive), the GI50 [56] was > 100 µM (inactive) and the GI50 [57] was > 100 µM (inactive).

`N=C1CCCC1C(=S)SCCC(N)=O` (stereo not drawn) was tested, and the GI50 [1] was > 100 µM (inactive), the GI50 [2] was > 100 µM (inactive) and the GI50 [3] was > 100 µM (inactive). For the same compound, the GI50 [4] was > 100 µM (inactive), the GI50 [5] was > 100 µM (inactive) and the GI50 [6] was > 100 µM (inactive). For the same compound, the GI50 [7] was > 100 µM (inactive), the GI50 [8] was > 100 µM (inactive) and the GI50 [9] was > 100 µM (inactive). For the same compound, the GI50 [10] was > 100 µM (inactive), the GI50 [11] was > 100 µM (inactive) and the GI50 [12] was > 100 µM (inactive). For the same compound, the GI50 [13] was > 100 µM (inactive), the GI50 [14] was > 100 µM (inactive) and the GI50 [15] was > 100 µM (inactive). For the same compound, the GI50 [16] was > 100 µM (inactive), the GI50 [17] was > 100 µM (inactive) and the GI50 [18] was > 100 µM (inactive). The GI50 [19] was 19.3 µM (inactive), the GI50 [20] was > 100 µM (inactive) and the GI50 [21] was 61.4 µM (inactive). The GI50 [22] was > 100 µM (inactive), the GI50 [23] was > 100 µM and the GI50 [24] was > 100 µM (inactive). For the same compound, the GI50 [25] was > 100 µM (inactive), the GI50 [26] was > 100 µM (inactive) and the GI50 [27] was > 100 µM (inactive). For the same compound, the GI50 [28] was > 100 µM (inactive), the GI50 [29] was > 100 µM (inactive) and the GI50 [30] was > 100 µM (inactive). For the same compound, the GI50 [31] was > 100 µM (inactive), the GI50 [32] was > 100 µM (inactive) and the GI50 [33] was > 100 µM (inactive). For the same compound, the GI50 [34] was > 100 µM (inactive), the GI50 [35] was > 100 µM (inactive) and the GI50 [36] was > 100 µM (inactive). The GI50 [37] was > 100 µM (inactive), the GI50 [38] was > 100 µM (inactive) and the GI50 [39] was > 100 µM (inactive). The GI50 [40] was > 100 µM (inactive), the GI50 [41] was > 100 µM (inactive) and the GI50 [42] was > 100 µM (inactive). For the same compound, the GI50 [43] was > 100 µM (inactive), the GI50 [44] was > 100 µM (inactive) and the GI50 [59] was > 100 µM (inactive). For the same compound, the GI50 [45] was > 100 µM (inactive), the GI50 [46] was > 100 µM (inactive) and the GI50 [47] was > 100 µM (inactive). The GI50 [48] was > 100 µM (inactive), the GI50 [49] was > 100 µM (inactive) and the GI50 [50] was > 100 µM (inactive). The GI50 [51] was > 100 µM (inactive), the GI50 [53] was > 100 µM (inactive) and the GI50 [54] was > 100 µM (inactive). For the same compound, the GI50 [55] was > 100 µM (inactive), the GI50 [56] was > 100 µM (inactive) and the GI50 [57] was > 100 µM (inactive).
